The compounds below were run against BRD4 (Homo sapiens, UniProt O60885) (assay: Time resolved fluorescence resonance energy transfer (TR-FRET) binding assay, bromodomain BRD4). Settings: one of the FRET assays described; read-out: FRET BRD4 IC50.

| SMILES | IC50 |
| --- | --- |
| Cc1nnn(C)c1-c1cnc2c3c(N(C)C)ncc(Cl)c3n([C@H](c3ccccc3)C3CCOCC3)c2c1 [Example 41, 10-Chloro-5-(dimethyl-1H-1,2,3-triazol-5-yl)-N,N-dimethyl-8-[(S)-oxan-4-yl(phenyl)methyl]-3,8,12-triazatricyclo[7.4.0.0^2,^7]trideca-1(13),2(7),3,5,9,11-hexaen-13-amine] | < 0.001 µM |
| [2H]C([2H])([2H])c1nnn(C)c1-c1cnc2c3c(OCC)ncc(S(C)(=O)=O)c3n(C(c3ncccc3F)C3CCOCC3)c2c1 (stereo not drawn) [Example 69, 13-Ethoxy-8-[(3-fluoropyridin-2-yl)(oxan-4-yl)methyl]-10-methanesulfonyl-5-[4-(^2H3)methyl-1-methyl-1H-1,2,3-triazol-5-yl]-3,8,12-triazatricyclo[7.4.0.0^2,^7]trideca-1(13),2(7),3,5,9,11-hexaene] | < 1.5 µM |
| COc1nnn(C)c1-c1cnc2c3ccc(Cl)nc3n([C@H](c3ccccc3)C3CCOCC3)c2c1 [Example 167, 11-Chloro-5-(4-methoxy-1-methyl-1H-1,2,3-triazol-5-yl)-8-[(S)-oxan-4-yl(phenyl)methyl]-3,8,10-triazatricyclo[7.4.0.0^2,^7]trideca-1(9),2(7),3,5,10,12-hexaene] | < 1.5 µM |
| Cc1nnn(C)c1-c1cnc2c3ccc(N4CCN(C(=O)C5CC5)CC4)nc3n([C@H](c3ccc(F)cc3)C3CCOCC3)c2c1 [Example 258, 11-(4-Cyclopropanecarbonylpiperazin-1-yl)-5-(dimethyl-1H-1,2,3-triazol-5-yl)-8-[(S)-(4-fluorophenyl)(oxan-4-yl)methyl]-3,8,10-triazatricyclo[7.4.0.0^2,^7]trideca-1(13),2(7),3,5,9,11-hexaene] | < 0.01 µM |
| CCCC(c1ccc(F)cn1)n1c2cc(-c3c(C)nnn3C)ncc2c2ncc(C(C)(C)O)cc21 (single isomer, unassigned) [Example 375] | < 1.5 µM |
| [2H]C([2H])([2H])c1nnn(C)c1-c1cnc2c3c(NCC(F)(F)F)cncc3n([C@H](c3ccccc3)C3CCOCC3)c2c1 [Example 302, 5-[4-(^2H3)Methyl-1-methyl-1H-1,2,3-triazol-5-yl]-8-[(S)-oxan-4-yl(phenyl)methyl]-N-(2,2,2-trifluoroethyl)-3,8,11-triazatricyclo[7.4.0.0^2,^7]trideca-1(9),2(7),3,5,10,12-hexaen-13-amine] | < 0.001 µM |
| Cc1nnn(C)c1-c1cnc2c3ccc(NC(=O)C(C)C)nc3n([C@H](c3ccccc3F)C3CCOCC3)c2c1 [Example 275, N-[5-(Dimethyl-1H-1,2,3-triazol-5-yl)-8-[(S)-(2-fluorophenyl)(oxan-4-yl)methyl]-3,8,10-triazatricyclo[7.4.0.0^2,^7]trideca-1(13),2(7),3,5,9,11-hexaen-11-yl]-2-methylpropanamide] | < 0.01 µM |
| Cc1noc(C)c1-c1cnc2c3ccc(N4CCS(=O)(=O)CC4)nc3n([C@H](c3ccccc3)C3CCOCC3)c2c1 [Example 209, 4-[5-(Dimethyl-1,2-oxazol-4-yl)-8-[(S)-oxan-4-yl(phenyl)methyl]-3,8,10-triazatricyclo[7.4.0.0^2,^7]trideca-1(9),2(7),3,5,10,12-hexaen-11-yl]-1λ^6,4-thiomorpholine-1,1-dione] | < 0.01 µM |
| [2H]C([2H])([2H])Oc1ncc(S(C)(=O)=O)c2c1c1ncc(-c3c(C)noc3C([2H])([2H])[2H])cc1n2[C@H](c1ccc(F)cc1)C1CCOCC1 [Example 55, 8-[(S)-(4-Fluorophenyl)(oxan-4-yl)methyl]-10-methanesulfonyl-13-(^2H3)methoxy-5-[5-(^2H3)methyl-3-methyl-1,2-oxazol-4-yl]-3,8,12-triazatricyclo[7.4.0.0^2,^7]trideca-1(13),2(7),3,5,9,11-hexaene] | < 0.001 µM |
| COc1nc(C(C)(C)O)cc2c1c1ncc(-c3c(C)nnn3C)cc1n2[C@@H](c1ncccc1F)C1CCOCC1 [Example 311, 2-{8-[(R)-(3-Fluoropyridin-2-yl)(oxan-4-yl)methyl]-13-methoxy-5-[4-(^2H3)methyl-1-methyl-1H-1,2,3-triazol-5-yl]-3,8,12-triazatricyclo[7.4.0.0^2,^7]trideca-1(9),2(7),3,5,10,12-hexaen-11-yl}propan-2-ol] | < 0.01 µM |
| CCCC(c1ncccc1F)n1c2cc(-c3c(C)nnn3C)ncc2c2ncc(C(C)(C)O)cc21 (single isomer, unassigned) [Example 371] | < 0.01 µM |
| [2H]C([2H])([2H])c1nnn(C)c1-c1cnc2c3c(OC)ncc(S(C)(=O)=O)c3n(C(c3ccc(F)cc3)C3CCC(F)(F)CC3)c2c1 (stereo in doubt) [Example 96, 8-[(R)-(4,4-Difluorocyclohexyl)(4-fluorophenyl)methyl]-10-methanesulfonyl-13-methoxy-5-[4-(^2H3)methyl-1-methyl-1H-1,2,3-triazol-5-yl]-3,8,12-triazatricyclo[7.4.0.0^2,^7]trideca-1(13),2(7),3,5,9,11-hexaene] | < 1.5 µM |
| C=C(OCC)c1cc2c(cn1)c1ncc(-c3c(C)noc3C)cc1n2[C@H](c1ccc(F)cc1)C1CCOCC1 [Example 329, 5-(Dimethyl-1,2-oxazol-4-yl)-11-(1-ethoxyethenyl)-8-[(S)-(4-fluorophenyl)(oxan-4-yl)methyl]-3,8,12-triazatricyclo[7.4.0.0^2,^7]trideca-1(9),2(7),3,5,10,12-hexaene] | < 0.01 µM |
| [2H]C([2H])([2H])c1nnn(C)c1-c1cnc2c3c(OC(C)C)ncc(S(C)(=O)=O)c3n([C@H](c3ccccc3)C3CCOCC3)c2c1 [Example 58, 10-Methanesulfonyl-5-[4-(^2H3)methyl-1-methyl-1H-1,2,3-triazol-5-yl]-8-[(S)-oxan-4-yl(phenyl)methyl]-13-(propan-2-yloxy)-3,8,12-triazatricyclo[7.4.0.0^2,^7]trideca-1(13),2(7),3,5,9,11-hexaene] | < 0.001 µM |
| Cc1nnn(C)c1-c1cnc2c3cncc(S(C)(=O)=O)c3n(C(c3ccccc3)C3CCC(F)(F)CC3)c2c1 (stereo not drawn) [Example 289, 8-[(4,4-Difluorocyclohexyl)(phenyl)methyl]-5-(dimethyl-1H-1,2,3-triazol-5-yl)-10-methanesulfonyl-3,8,12-triazatricyclo[7.4.0.0^2,^7]trideca-1(13),2(7),3,5,9,11-hexaene] | < 1.5 µM |
| COc1ncc(S(C)(=O)=O)c2c1c1ncc(-c3c(C)noc3C)cc1n2[C@H](c1ccc(F)cc1)C1CCOCC1 [Example 49, 5-(Dimethyl-1,2-oxazol-4-yl)-8-[(S)-(4-fluorophenyl)(oxan-4-yl)methyl]-10-methanesulfonyl-13-methoxy-3,8,12-triazatricyclo[7.4.0.0^2,^7]trideca-1(13),2(7),3,5,9,11-hexaene] | < 0.001 µM |
| Cc1nnn(C)c1-c1cnc2c3c(NS(=O)(=O)C4CC4)ncc(S(C)(=O)=O)c3n([C@H](c3ccccc3)C3CCOCC3)c2c1 [Example 97, N-[5-(Dimethyl-1H-1,2,3-triazol-5-yl)-10-methanesulfonyl-8-[(S)-oxan-4-yl(phenyl)methyl]-3,8,12-triazatricyclo[7.4.0.0^2,^7]trideca-1(13),2(7),3,5,9,11-hexaen-13-yl]cyclopropanesulfonamide] | < 0.001 µM |
| Cc1nnn(C)c1-c1cnc2c3ccc(N4CCS(=O)(=O)C(C)C4)nc3n(C(c3ccccc3)C3CCOCC3)c2c1 [Example 217, 4-[5-(Dimethyl-1H-1,2,3-triazol-5-yl)-8-[(S)-oxan-4-yl(phenyl)methyl]-3,8,10-triazatricyclo[7.4.0.0^2,^7]trideca-1(9),2(7),3,5,10,12-hexaen-11-yl]-2-methyl-1λ^6,4-thiomorpholine-1,1-dione] | < 0.01 µM |
| [2H]C([2H])([2H])c1nnn(C)c1-c1cnc2c3c(OCC4CCCO4)ncc(S(C)(=O)=O)c3n([C@H](c3ccccc3)C3CCOCC3)c2c1 (stereo partly drawn) [Example 109, 10-Methanesulfonyl-5-[4-(^2H3)methyl-1-methyl-1H-1,2,3-triazol-5-yl]-8-[(S)-oxan-4-yl(phenyl)methyl]-13-[(2R)-oxolan-2-ylmethoxy]-3,8,12-triazatricyclo[7.4.0.0^2,^7]trideca-1(13),2(7),3,5,9,11-hexaene] | < 0.01 µM |
| [2H]C([2H])([2H])c1nnn(C)c1-c1cnc2c3ccc(C(C)(C)O)nc3n([C@H](c3ccccc3)C3CCOCC3)c2c1 [Example 175, 2-{5-[4-(^2H3)Methyl-1-methyl-1H-1,2,3-triazol-5-yl]-8-[(S)-oxan-4-yl(phenyl)methyl]-3,8,10-triazatricyclo[7.4.0.0^2,^7]trideca-1(9),2(7),3,5,10,12-hexaen-11-yl}propan-2-ol] | < 0.01 µM |
| CCCC(c1ccc(F)cn1)n1c2cc(-c3c(C)nnn3C)ncc2c2ncc(C(C)(C)O)cc21 (single isomer, unassigned) [Example 376] | < 0.01 µM |
| [2H]C([2H])([2H])c1nnn(C)c1-c1cc2c(cn1)c1ncc(C(C)(C)O)cc1n2[C@H](c1ccccc1)C1CCOCC1 [Example 364, 2-{11-[4-(^2H3)Methyl-1-methyl-1H-1,2,3-triazol-5-yl]-8-[(S)-(oxan-4-yl)(phenyl)methyl]-3,8,12-triazatricyclo[7.4.0.0^2,^7]trideca-1(9),2,4,6,10,12-hexaen-5-yl}propan-2-ol] | < 0.01 µM |
| [2H]C([2H])([2H])c1nnn(C)c1-c1cnc2c3c(OCC(F)F)ncc(S(C)(=O)=O)c3n([C@H](c3ccccc3)C3CCOCC3)c2c1 [Example 112, 13-(2,2-Difluoroethoxy)-10-methanesulfonyl-5-[4-(^2H3)methyl-1-methyl-1H-1,2,3-triazol-5-yl]-8-[(S)-oxan-4-yl(phenyl)methyl]-3,8,12-triazatricyclo[7.4.0.0^2,^7]trideca-1(13),2(7),3,5,9,11-hexaene] | < 0.001 µM |
| [2H]C([2H])([2H])C(O)(c1cc2c(cn1)c1ncc(-c3c(C)noc3C)cc1n2[C@H](c1ccc(F)cc1)C1CCOCC1)C([2H])([2H])[2H] [Example 224, 2-[5-(Dimethyl-1,2-oxazol-4-yl)-8-[(S)-(4-fluorophenyl)(oxan-4-yl)methyl]-3,8,12-triazatricyclo[7.4.0.0^2,^7]trideca-1(13),2(7),3,5,9,11-hexaen-11-yl](^2H6)propan-2-ol] | < 0.01 µM |
